Laboratory results taken from ChEMBL document CHEMBL4028801, “A multifactorial approach to hepatobiliary transporter assessment enables improved therapeutic compound development” (Toxicol Sci, 2013).
One block for each compound: values may come before it.

What was measured:
[1] = target: Bile salt export pump (Homo sapiens, UniProt O95342); experiment: Inhibition of human BSEP overexpressed in Sf9 cell membrane vesicles assessed as uptake of [3H]-taurocholate in presence of ATP measured after 15 to 20 mins by membrane vesicle transport assay; assay type: ADME, cell-based
[2] = target: ATP-binding cassette sub-family C member 3 (Homo sapiens, UniProt O15438); experiment: Inhibition of human MRP3 overexpressed in Sf9 insect cell membrane vesicles assessed as uptake of [3H]-estradiol-17beta-D-glucuronide in presence of ATP and GSH measured after 10 mins by membrane vesicle transport assay; assay type: ADME, cell-based
[3] = target: T1, ATP-binding cassette sub-family C member 4 (Homo sapiens, UniProt O15439); experiment: Inhibition of human MRP4 overexpressed in Sf9 cell membrane vesicles assessed as uptake of [3H]-estradiol-17beta-D-glucuronide in presence of ATP and GSH measured after 20 mins by membrane vesicle transport assay; assay type: ADME, cell-based
T1 sequence (O15439 whole entry): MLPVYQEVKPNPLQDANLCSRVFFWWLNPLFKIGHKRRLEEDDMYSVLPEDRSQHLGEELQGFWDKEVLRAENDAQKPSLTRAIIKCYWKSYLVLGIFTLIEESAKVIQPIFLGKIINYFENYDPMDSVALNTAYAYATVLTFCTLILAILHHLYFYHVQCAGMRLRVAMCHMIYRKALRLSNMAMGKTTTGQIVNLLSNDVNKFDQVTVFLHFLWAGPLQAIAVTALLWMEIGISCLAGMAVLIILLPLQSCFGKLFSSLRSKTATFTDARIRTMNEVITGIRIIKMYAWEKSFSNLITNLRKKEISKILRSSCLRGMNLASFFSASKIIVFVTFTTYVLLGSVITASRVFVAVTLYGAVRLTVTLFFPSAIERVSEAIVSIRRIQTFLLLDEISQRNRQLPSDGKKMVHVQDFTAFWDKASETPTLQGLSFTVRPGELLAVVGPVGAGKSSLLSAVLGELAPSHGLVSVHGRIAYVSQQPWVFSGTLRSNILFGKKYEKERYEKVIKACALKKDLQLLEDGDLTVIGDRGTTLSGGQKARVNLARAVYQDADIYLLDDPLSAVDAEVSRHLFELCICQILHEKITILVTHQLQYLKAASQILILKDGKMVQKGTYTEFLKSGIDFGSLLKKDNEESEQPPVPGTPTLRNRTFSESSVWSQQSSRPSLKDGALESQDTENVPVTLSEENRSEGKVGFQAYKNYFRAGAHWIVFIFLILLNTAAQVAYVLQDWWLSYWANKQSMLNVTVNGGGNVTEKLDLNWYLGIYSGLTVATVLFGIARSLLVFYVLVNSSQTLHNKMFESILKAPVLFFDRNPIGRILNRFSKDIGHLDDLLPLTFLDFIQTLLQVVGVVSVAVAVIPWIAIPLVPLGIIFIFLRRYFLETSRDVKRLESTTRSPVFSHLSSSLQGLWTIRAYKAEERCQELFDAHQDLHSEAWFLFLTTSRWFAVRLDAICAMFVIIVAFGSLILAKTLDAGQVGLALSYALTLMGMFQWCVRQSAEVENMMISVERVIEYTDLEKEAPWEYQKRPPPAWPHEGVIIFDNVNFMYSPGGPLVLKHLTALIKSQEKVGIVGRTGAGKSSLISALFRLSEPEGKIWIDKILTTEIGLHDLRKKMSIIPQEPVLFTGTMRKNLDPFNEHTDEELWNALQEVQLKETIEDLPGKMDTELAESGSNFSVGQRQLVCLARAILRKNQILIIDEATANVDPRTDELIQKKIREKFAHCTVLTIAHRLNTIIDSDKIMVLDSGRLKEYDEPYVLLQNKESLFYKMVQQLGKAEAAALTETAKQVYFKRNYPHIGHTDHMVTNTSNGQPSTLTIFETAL

[4] = Drug concentration at steady state in human at 100 to 300 mg, po QD after 24 hrs; assay type: ADME, organism-based; details: in vivo, read-out: Css
[5] = Ratio of drug concentration at steady state in human at 100 to 300 mg, po QD after 24 hrs to IC50 for human BSEP overexpressed in Sf9 insect cells; assay type: ADME, organism-based; details: in vivo
[6] = Ratio of drug concentration at steady state in human at 100 to 300 mg, po QD after 24 hrs to IC50 for human MRP2 overexpressed in Sf9 insect cells; assay type: ADME, organism-based; details: in vivo
[7] = Ratio of drug concentration at steady state in human at 100 to 300 mg, po QD after 24 hrs to IC50 for human MRP3 overexpressed in Sf9 insect cells; assay type: ADME, organism-based; details: in vivo
[8] = AUC in human at 100 to 300 mg, po QD after 24 hrs; assay type: ADME, organism-based; details: in vivo
[9] = target: ATP-binding cassette sub-family C member 2 (Homo sapiens, UniProt Q92887); experiment: Inhibition of human MRP2 overexpressed in Sf9 cell membrane vesicles assessed as uptake of [3H]-estradiol-17beta-D-glucuronide in presence of ATP and GSH measured after 20 mins by membrane vesicle transport assay
[10] = AUC in human at 60 to 100 mg/m2, iv via infusion for 1 hr every 3 weeks measured after 1 hr; assay type: ADME, organism-based; parameters: time < 1 hr, route intravenous; details: in vivo
[11] = Drug concentration at steady state in human at 60 to 100 mg/m2, iv via infusion for 1 hr every 3 weeks measured after 1 hr; assay type: ADME, organism-based; details: in vivo, read-out: Css
[12] = Ratio of drug concentration at steady state in human at 60 to 100 mg/m2, iv via infusion for 1 hr every 3 weeks measured after 1 hr to IC50 for human BSEP overexpressed in Sf9 insect cells; assay type: ADME, organism-based
[13] = AUC in human at 20 to 25 mg/kg, po TID after 8 hrs; assay type: ADME, organism-based; details: in vivo
[14] = Drug concentration at steady state in human at 20 to 25 mg/kg, po TID after 8 hrs; assay type: ADME, organism-based; details: in vivo, read-out: Css
[15] = Ratio of drug concentration at steady state in human at 20 to 25 mg/kg, po TID after 8 hrs to IC50 for human BSEP overexpressed in Sf9 insect cells; assay type: ADME, organism-based; details: in vivo
[16] = AUC in human at 1200 mg administered orally BID up to 2800 mg/day after 12 hrs; assay type: ADME; parameters: time < 12 hr, dose 1200 mg, route oral; details: in vivo, po
[17] = Drug concentration at steady state in human at 1200 mg administered orally BID up to 2800 mg/day after 12 hrs; assay type: ADME; details: in vivo, po, read-out: Css
[18] = Ratio of drug concentration at steady state in human at 1200 mg administered orally BID up to 2800 mg/day after 12 hrs to IC50 for human BSEP overexpressed in Sf9 insect cells; assay type: ADME; details: in vivo, po
[19] = AUC in human at 100 to 200 mg, po QD after 24 hrs; assay type: ADME, organism-based; details: in vivo
[20] = Drug concentration at steady state in human at 100 to 200 mg, po QD after 24 hrs; assay type: ADME, organism-based; details: in vivo, read-out: Css
[21] = Ratio of drug concentration at steady state in human at 100 to 200 mg, po QD after 24 hrs to IC50 for human BSEP overexpressed in Sf9 insect cells; assay type: ADME, organism-based; details: in vivo
[22] = Ratio of drug concentration at steady state in human at 100 to 200 mg, po QD after 24 hrs to IC50 for human MRP2 overexpressed in Sf9 insect cells; assay type: ADME, organism-based; details: in vivo
[23] = Ratio of drug concentration at steady state in human at 100 to 200 mg, po QD after 24 hrs to IC50 for human MRP4 overexpressed in Sf9 insect cells; assay type: ADME, organism-based; details: in vivo

Sequence of Bile salt export pump (O95342 whole entry): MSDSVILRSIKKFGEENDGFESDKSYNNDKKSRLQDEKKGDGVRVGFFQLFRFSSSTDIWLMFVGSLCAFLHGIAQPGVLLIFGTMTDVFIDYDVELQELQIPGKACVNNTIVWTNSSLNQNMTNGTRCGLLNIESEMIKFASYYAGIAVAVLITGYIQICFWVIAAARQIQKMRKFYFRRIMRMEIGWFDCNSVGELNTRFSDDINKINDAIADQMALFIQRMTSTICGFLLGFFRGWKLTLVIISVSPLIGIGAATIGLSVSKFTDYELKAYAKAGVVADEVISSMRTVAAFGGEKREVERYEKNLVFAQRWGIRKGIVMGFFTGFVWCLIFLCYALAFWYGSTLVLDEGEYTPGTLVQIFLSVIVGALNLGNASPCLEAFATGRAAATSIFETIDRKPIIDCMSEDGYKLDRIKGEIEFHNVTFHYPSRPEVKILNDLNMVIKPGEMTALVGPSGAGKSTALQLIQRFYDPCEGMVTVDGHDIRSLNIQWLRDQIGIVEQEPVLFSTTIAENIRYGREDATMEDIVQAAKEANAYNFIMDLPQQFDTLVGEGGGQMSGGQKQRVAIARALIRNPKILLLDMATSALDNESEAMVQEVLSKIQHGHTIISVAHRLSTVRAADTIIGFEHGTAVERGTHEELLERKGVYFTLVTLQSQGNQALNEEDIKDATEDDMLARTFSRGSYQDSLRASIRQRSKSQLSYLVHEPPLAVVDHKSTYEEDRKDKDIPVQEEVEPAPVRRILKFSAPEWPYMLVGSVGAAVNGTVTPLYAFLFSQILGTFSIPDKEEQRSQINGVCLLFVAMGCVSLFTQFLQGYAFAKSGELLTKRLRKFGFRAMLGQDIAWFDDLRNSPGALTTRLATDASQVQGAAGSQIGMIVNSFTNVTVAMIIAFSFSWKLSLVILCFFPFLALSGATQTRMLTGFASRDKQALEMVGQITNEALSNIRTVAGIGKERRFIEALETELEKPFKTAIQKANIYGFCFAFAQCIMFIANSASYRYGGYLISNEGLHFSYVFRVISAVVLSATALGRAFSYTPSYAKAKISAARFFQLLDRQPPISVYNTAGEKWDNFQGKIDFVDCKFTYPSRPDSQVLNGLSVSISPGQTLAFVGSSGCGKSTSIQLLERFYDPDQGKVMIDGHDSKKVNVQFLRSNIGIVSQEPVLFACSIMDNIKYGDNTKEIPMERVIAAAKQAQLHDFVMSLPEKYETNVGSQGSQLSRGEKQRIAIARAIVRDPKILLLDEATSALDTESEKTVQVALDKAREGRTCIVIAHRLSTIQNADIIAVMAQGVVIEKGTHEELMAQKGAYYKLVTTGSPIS
Sequence of ATP-binding cassette sub-family C member 3 (O15438 whole entry): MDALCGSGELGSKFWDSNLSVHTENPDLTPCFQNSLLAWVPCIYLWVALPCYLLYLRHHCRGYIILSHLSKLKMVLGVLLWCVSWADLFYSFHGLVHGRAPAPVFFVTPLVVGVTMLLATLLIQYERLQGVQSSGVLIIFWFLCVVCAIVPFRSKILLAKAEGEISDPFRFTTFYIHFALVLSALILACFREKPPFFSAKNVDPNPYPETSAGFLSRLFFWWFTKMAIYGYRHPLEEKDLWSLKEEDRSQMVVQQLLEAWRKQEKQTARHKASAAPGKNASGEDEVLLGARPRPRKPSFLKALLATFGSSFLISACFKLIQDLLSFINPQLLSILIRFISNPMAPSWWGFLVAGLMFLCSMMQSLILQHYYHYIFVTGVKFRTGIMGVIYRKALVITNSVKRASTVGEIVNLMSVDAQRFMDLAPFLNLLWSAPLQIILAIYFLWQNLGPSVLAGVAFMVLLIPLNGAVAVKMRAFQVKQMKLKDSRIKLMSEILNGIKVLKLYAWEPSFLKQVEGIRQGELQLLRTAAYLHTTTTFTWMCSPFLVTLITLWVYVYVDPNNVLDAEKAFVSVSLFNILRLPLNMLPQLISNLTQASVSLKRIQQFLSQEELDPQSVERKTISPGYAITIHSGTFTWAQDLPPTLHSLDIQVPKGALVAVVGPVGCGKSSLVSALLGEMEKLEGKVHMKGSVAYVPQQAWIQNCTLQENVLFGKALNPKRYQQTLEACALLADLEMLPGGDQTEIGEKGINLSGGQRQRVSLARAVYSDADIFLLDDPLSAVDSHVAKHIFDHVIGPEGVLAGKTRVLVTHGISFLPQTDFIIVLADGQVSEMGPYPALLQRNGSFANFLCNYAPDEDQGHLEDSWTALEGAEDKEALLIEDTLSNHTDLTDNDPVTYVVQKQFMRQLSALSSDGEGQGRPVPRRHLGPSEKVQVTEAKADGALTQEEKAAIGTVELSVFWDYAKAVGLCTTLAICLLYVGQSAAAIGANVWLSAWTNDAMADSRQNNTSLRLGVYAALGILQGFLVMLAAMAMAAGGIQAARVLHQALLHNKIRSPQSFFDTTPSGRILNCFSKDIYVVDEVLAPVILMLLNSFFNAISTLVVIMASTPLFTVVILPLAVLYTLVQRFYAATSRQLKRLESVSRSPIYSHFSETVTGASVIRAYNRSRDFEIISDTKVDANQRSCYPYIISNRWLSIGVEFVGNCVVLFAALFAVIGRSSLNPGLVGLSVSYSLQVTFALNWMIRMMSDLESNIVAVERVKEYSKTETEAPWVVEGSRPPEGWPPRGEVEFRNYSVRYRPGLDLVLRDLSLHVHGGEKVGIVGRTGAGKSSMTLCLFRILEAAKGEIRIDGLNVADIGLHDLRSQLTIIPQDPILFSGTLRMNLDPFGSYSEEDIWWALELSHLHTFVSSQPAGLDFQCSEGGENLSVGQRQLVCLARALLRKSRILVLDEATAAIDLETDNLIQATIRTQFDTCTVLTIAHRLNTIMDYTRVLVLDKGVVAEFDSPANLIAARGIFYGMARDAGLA
Sequence of ATP-binding cassette sub-family C member 2 (Q92887 whole entry, the tested form may be a part): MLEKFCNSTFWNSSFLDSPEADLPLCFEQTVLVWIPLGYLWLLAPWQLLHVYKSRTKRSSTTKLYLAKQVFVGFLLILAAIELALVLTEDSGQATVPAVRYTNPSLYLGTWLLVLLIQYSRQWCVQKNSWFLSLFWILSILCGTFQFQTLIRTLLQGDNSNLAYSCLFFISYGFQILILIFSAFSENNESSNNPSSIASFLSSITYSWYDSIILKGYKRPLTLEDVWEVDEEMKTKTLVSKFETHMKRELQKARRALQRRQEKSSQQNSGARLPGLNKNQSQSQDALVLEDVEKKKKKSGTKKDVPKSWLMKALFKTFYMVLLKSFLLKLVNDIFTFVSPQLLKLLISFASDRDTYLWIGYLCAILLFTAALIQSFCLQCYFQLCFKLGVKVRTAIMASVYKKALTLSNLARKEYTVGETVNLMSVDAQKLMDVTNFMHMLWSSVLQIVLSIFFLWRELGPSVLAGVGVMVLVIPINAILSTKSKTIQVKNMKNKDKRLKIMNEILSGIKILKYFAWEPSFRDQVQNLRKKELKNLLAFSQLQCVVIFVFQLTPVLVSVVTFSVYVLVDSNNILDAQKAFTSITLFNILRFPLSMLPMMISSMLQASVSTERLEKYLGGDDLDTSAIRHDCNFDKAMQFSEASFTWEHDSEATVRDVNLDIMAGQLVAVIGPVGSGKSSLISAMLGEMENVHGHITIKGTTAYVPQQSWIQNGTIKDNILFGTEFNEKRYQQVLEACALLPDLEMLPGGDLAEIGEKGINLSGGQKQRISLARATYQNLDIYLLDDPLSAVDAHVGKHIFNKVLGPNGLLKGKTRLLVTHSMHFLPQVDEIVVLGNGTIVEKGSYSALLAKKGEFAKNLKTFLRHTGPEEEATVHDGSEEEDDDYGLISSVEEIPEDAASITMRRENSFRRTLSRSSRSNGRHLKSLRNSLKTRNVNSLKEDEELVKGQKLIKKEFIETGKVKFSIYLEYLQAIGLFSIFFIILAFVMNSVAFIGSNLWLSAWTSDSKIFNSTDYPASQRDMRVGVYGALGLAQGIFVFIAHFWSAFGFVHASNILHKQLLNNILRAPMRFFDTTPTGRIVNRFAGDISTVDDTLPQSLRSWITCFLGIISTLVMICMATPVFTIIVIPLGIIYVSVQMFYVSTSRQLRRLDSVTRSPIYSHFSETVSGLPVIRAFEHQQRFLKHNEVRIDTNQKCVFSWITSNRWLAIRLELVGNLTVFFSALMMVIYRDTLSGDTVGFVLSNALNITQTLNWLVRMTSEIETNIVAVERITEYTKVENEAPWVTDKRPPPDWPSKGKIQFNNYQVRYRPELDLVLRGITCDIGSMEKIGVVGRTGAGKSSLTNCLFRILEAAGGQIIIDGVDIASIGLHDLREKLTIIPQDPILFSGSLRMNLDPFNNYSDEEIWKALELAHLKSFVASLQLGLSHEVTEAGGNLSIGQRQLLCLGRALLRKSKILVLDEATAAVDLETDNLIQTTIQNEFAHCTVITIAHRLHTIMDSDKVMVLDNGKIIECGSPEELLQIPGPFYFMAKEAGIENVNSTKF

Compound: CC(=O)O[C@@]12CO[C@@H]1C[C@H](O)[C@@]1(C)C(=O)[C@H](O)C3=C(C)[C@@H](OC(=O)[C@H](O)[C@@H](NC(=O)OC(C)(C)C)c4ccccc4)C[C@@](O)([C@@H](OC(=O)c4ccccc4)[C@H]21)C3(C)C [DOCETAXEL ANHYDROUS]
IC50 [1]: 41 µM | IC50 [9]: > 133 µM | IC50 [2]: > 133 µM | IC50 [3]: > 133 µM | AUC at 1 h [10]: 6.51 µM·h | concentration at 1 h [11]: 6.52 µM | Ratio [12]: 0.16

Compound: CCc1oc2ccccc2c1C(=O)c1cc(Br)c(O)c(Br)c1 [BENZBROMARONE]
IC50 [9]: 41.6 µM | IC50 [2]: > 133 µM | IC50 [3]: 17 µM | AUC at 24 h [19]: 45 µM·h | concentration at 24 h [20]: 1.88 µM | Ratio [21]: 0.107 | Ratio [22]: 0.045 | Ratio [23]: 0.11

Now from value to compound, other results behind:

IC50 [2]: 45.4 µM | IC50 [3]: 28.4 µM | concentration at 24 h [4]: 2 µM | Ratio [6]: 0.044 | Ratio [7]: 0.07 | AUC at 24 h [8]: 47.9 µM·h
Compound: Cc1cc2c(cc1CC(=O)c1sccc1S(=O)(=O)Nc1onc(C)c1Cl)OCO2 [SITAXENTAN]
IC50 [1]: 12.6 µM | Ratio [5]: 0.158

IC50 [9]: > 133 µM | IC50 [2]: > 133 µM | IC50 [3]: > 133 µM | AUC at 8 h [13]: 50.4 µM·h | concentration at 8 h [14]: 6.3 µM
Compound: O=C(C1CCCCC1)N1CC(=O)N2CCc3ccccc3C2C1 (configuration not stated) [PRAZIQUANTEL]
IC50 [1]: 67.1 µM | Ratio [15]: 0.094

IC50 [9]: > 133 µM | IC50 [2]: > 133 µM | IC50 [3]: > 133 µM | AUC at 12 h [16]: 52.2 µM·h | concentration at 12 h [17]: 4.35 µM
Compound: CC(C)CN(C[C@@H](O)[C@H](Cc1ccccc1)NC(=O)O[C@H]1CCOC1)S(=O)(=O)c1ccc(N)cc1
IC50 [1]: 44.8 µM | Ratio [18]: 0.097
